PMC12828148, “Engineered cyclic peptide targeting ITGA5 disrupts tumor–stroma interaction to overcome desmoplasia and resistance in pancreatic ductal adenocarcinoma” (Acta Pharmaceutica Sinica. B, 2025)
Ends that are not written are not given here.

Key:
[1] = system: PANC-1 homospheroids / PANC-1 + PSC heterospheroids; assay: 3D spheroid growth and ATP viability, PANC-1 model; type: cell-based; conditions: PANC-1 homo- and PANC-1 + PSC hetero-spheroids, treated Days 3 and 6, size Days 3, 6, 9, n = 20
Protocol: Homo-spheroids containing hPSCs, PANC-1, or MIA PaCa-2, and hetero-spheroids containing 1:1 combination of hPSCs and PANC-1/MIA PaCa-2 were generated in a 96-well round bottom plates precoated with 1% Pluronic F-127 (Sigma–Aldrich). The self-assembled spheroids were exposed to cyAV3.3, gemcitabine, or both after 3 days and 6 days. Before each treatment, images of spheroids were made using inverted microscope. The diameters of spheroids were measured digitally using ImageJ software. After 9 days, spheroids were moved from the wells to a fresh 96-well plate. CellTiter-Glo 3D reagent (Promega, WI, USA) was added to each well and the luminescence signal was measured after 30 min using Varioskan LUX bioluminescent reader (Thermo Scientific) to assess the viability.

[2] = system: PANC-1 + PSC and MIA PaCa-2 + PSC co-injection xenograft tumors; conditions: PANC-1 + PSC and MIA PaCa-2 + PSC co-injection xenografts, i.p. treatment, n = 4 per group per tumor type
Protocol: Six-week-old male CB17 SCID mice (Janvier Labs, Le Genest-Saint-Isle, France) were subcutaneously injected with a 2:1 mixture of 4 × 10^6 human PSCs and 2 × 10^6 PANC-1 or MIA PaCa-2 cells. Tumor growth was assessed twice a week. Tumor-bearing mice (±100 mm^3) were treated with phosphate buffered saline (PBS), cyAV3.3, gemcitabine, or combination of gemcitabine and cyAV3.3 intraperitoneally (i.p). Animals were euthanized, tumors and other organs were harvested and embedded in Cryomatrix (Thermo Scientific) before being snap frozen in cold 2-methyl butane (Thermo Scientific) and stored at −80 °C until analyses. […]
Immunohistochemical staining of mouse tumors
Tumors were cut into 7 μm thick sections and mounted on glass slides using Cryotome FSE (Thermo Scientific), dried, and fixed in acetone for 15 min. Tumor sections were rehydrated in PBS for 10 min then incubated with primary antibody diluted in PBS for 1 hour at RT. Antibodies […]
Next, slides were washed 3 times with PBS before incubation with secondary fluorescence-labeled antibody diluted in PBS. After 30 min of incubation, slides were washed with PBS and shielded with a DAPI -containing mounting medium. Images were made using a Hamamatsu NanoZoomer Digital slide scanner 2.0HT (Hamamatsu Photonics, New Jersey, […]

[3] = system: KPC (LSL-Kras^G12D/+; LSL-Trp53^R172H/+; Pdx1-Cre) PDAC tumors; assay: Efficacy in genetically engineered KPC mouse PDAC model; type: in vivo, mice; conditions: isolated tumors, n = 6
Protocol: LSL-Kras^G12D/+; LSL-Trp53^R172H/+; Pdx1-Cre (KPC) mice were bred and maintained, on a mixed background, at the CRUK Scotland Institute. Mice were palpated until an abdominal tumor was detected (between 12 and 28 weeks of age) and were then imaged under anesthesia by 3D ultrasound imaging using the VisualSonics Vevo 3100 system with the MX550D transducer (FujiFilm). Following confirmation of PDAC of 3–6 mm, mice of both sexes were enrolled on treatment with cyAV3.3 25 mg/kg i.p. b.i.w. and gemcitabine (100 mg/kg i.p. b.i.w., n = 6). No mice were excluded from the study. Mice treated with gemcitabine alone were used as control group (n = 6). Follow-up imaging to monitor tumor volume was performed weekly until endpoint was reached (moderate symptoms: abdominal distension, loss of body conditioning, jaundice, hunching, or reduced movement). Upon post-mortem, gross pathology was examined and PDAC and organs harvested and fixed in 10% neutral buffered formalin prior to paraffin embedding and sectioning for histological and IHC analysis. Kaplan–Meier and Log-Rank analysis was used for statistical assessment of survival. Analysis of ultrasound images was performed by researchers blinded to treatment arm using VisualSonics VevoLab software (version 3.1.1). In 3D mode, stacked images of the tumor were imported, and tumor border annotated, allowing a 3D volume analysis.

hPSCs = assay: Cell viability, Alamar blue assay; type: cell-based, human
Protocol: We investigated the inhibitory effect of both cyclic and linear peptides on PSC activation and signaling. To achieve this, PSCs were seeded and treated with TGF-β and peptides for 48 h (protein expression) or 24 h (gene expression). We also tested the effect of the peptide on the cell viability using Alamar blue assay and found no toxicity (Supporting Information Fig. S3A). […] To quantitate that, we performed Western blot analysis and confirmed the observed effect via immunostaining (Fig. 2B and C; Fig. S3B). The details of the antibodies used can be found in Supporting Information Table S2. […] After obtaining these effects, we focused on cyAV3.3 and examined its inhibitory effects on TGF-β1-stimulated PSCs using qPCR and an RT[2] profiler PCR array for ECM and adhesion receptors (Fig. 2D). […] The details of primers for all genes can be found in Supporting Information Table S3. […] In contrast, cyAV3.3 induced the gene expression of ECM-degrading proteins such as MMP10 and ADAMTS-13 (Supporting Information Fig. S4).

[4] = system: hPSC activated with TGF-β; assay: Inhibition of TGF-β-induced PSC activation (immunocytochemical staining, Western blot); type: cell-based, human; conditions: 5 ng/mL TGF-β, 48 h, peptides at 20 and 50 μmol/L, immunostaining and Western blot
Protocol: secondary peroxidase labeled antibody was added and incubated for 1 h at RT. The HRP signal was developed using standard chemiluminescence kit and the signal was measured.
To evaluate the stability, 20 µmol/L peptide was incubated in 50% human plasma at biological temperature 37 °C for 1, 2, and 24 h. After incubation, plasma was precipitated by adding equal volume of 4% trichloroacetic acid (TCA) and rested on ice for 10 min. As control (or 0h), precipitation was performed immediately after mixing the peptide and plasma. Supernatant was collected after centrifugation at 13,300 × g and assessed using reversed phase high performance liquid chromatography (HPLC) with 5%, 95%, and 99.9% acetonitrile in de-gassed water with 0.1% trifluoroacetic acid as eluents. The remaining peptide was analyzed at a wavelength 280 nm.
Quantitative real-time PCR
To examine the effect of peptides on the gene expression of hPSC activation markers, cells were seeded into a 12 well plate at a seeding density of 50,000 cells/well. After overnight incubation, cells were starved for 24 h, then treated with human recombinant 5 ng/mL TGF-β (Peprotech, Hamburg, Germany) and […] peptide. After 24 h of the incubation, cells were lysed and total RNA was isolated using GenElute™ Mammalian Total RNA Miniprep Kit (Sigma–Aldrich) and the RNA concentration was measured using a NanoDrop® ND-1000 Spectrophotometer (Thermo Scientific, Waltham, USA). cDNA was synthesized with iScript™ cDNA Synthesis Kit (BioRad, Veenendaal, The Netherlands), and 10 ng cDNA was used for each PCR reaction. […] Quantitative real time PCR was performed with 2× SensiMix SYBR and Fluoroscein Kit (Bioline GmbH, Luckenwalde, Germany) using a BioRad CFX384 Real-Time PCR detection system (BioRad). […]
To evaluate the effect of peptides on the protein expression of hPSC activation markers, hPSCs were seeded into a 12 well plate at seeding density 50,000 cells/well. […] Proteins were detected with […]
medium. […] Images were analyzed using […]
secondary fluorescence-labeled antibody diluted in PBS. […]

TGF-β treated PSCs = assay: Cell adhesion competition study (PSC attachment to FN-coated plate, crystal violet); type: cell-based, human; conditions: 50 μmol/L peptide, 30 min pre-incubation 37 °C, 1 h attachment, crystal violet absorbance 600 nm, n = 3
Protocol: To analyze the interaction of PSC and FN, a 96 suspension well plate was coated with 100 μL FN (Advanced Biomatrix, Carlsbad, CA, USA) at 1 μg/mL by overnight incubation at 4 °C. Next, the plate was washed with DPBS (Lonza) and blocked with 5% bovine serum albumin (BSA) in DPBS for at least 1 h at RT. In the meantime, a cell suspension of 200,000 cells/mL of TGF-β treated PSCs in DPBS with 2 mmol/L Ca^2+ and 2 mmol/L Mg^2+ was treated with 50 μmol/L AV3.3 or cyAV3.3 and incubated for 30 min at 37 °C. After washing the plate with DPBS, 100 μL cell suspension was added to each well and then set to rest for 1 h at RT. The plate was then washed with DPBS to remove unattached cells. […] Next, cells were stained with 0.1% (w/v) crystal violet (Sigma) in 25% methanol at RT. After 20 min, cells were washed with water and lysed with 0.5% (w/v) SDS. The degree of cell attachment was measured by the absorbance of the crystal violet at 600 nm using Tecan Infinite M200 plate reader (Tecan, Mannendorf, Switzerland). In other plate, cells were washed with DPBS after fixation and then stained with DAPI. Images were developed using EVOS fluorescence microscope (Thermo Scientific).

Which results are given for `Nc1ccn([C@@H]2O[C@H](CO)[C@@H](O)C2(F)F)c(=O)n1` [gemcitabine]?
spheroid growth [1]: reduced the growth of both homo- and hetero-spheroids; reduction of tumor size / tumor growth [2]: 60%; collagen deposition (Sirius red) in KPC tumors [3]: significantly induced collagen deposition

RYYRATY [AV3.3] was tested. Which “effect on cell viability” value (hPSCs) did it give?
The value was “no toxicity”.

What about the “inhibition of PSC activation by TGF-β1 (expression of α-SMA and collagen-1)” value [4] of the same compound?
The value was “inhibited the activation of PSCs”.

With “cyclo(GYYTRRAYK) [scr, scrambled cyclic peptide control, reference compound]” as the compound, how does the “blocking of the binding of PSC to FN” value (TGF-β treated PSCs) read?
The value was “did not show any blocking”.
